Data on 23 molecules can be found in patent US11787762B2, “Tetralin and tetrahydroquinoline compounds as inhibitors of HIF-2alpha” (ARCUS BIOSCIENCES, INC., priority 2020, dated 2023).

The target of one assay is T1, HIF-2α (Homo sapiens, UniProt Q99814).
T1 construct: host or cells: 786-O cells stably transduced with Cignal Lenti HIF Luc Reporter (only the reporter was introduced, not HIF-2α)
T1 sequence (Q99814 whole entry): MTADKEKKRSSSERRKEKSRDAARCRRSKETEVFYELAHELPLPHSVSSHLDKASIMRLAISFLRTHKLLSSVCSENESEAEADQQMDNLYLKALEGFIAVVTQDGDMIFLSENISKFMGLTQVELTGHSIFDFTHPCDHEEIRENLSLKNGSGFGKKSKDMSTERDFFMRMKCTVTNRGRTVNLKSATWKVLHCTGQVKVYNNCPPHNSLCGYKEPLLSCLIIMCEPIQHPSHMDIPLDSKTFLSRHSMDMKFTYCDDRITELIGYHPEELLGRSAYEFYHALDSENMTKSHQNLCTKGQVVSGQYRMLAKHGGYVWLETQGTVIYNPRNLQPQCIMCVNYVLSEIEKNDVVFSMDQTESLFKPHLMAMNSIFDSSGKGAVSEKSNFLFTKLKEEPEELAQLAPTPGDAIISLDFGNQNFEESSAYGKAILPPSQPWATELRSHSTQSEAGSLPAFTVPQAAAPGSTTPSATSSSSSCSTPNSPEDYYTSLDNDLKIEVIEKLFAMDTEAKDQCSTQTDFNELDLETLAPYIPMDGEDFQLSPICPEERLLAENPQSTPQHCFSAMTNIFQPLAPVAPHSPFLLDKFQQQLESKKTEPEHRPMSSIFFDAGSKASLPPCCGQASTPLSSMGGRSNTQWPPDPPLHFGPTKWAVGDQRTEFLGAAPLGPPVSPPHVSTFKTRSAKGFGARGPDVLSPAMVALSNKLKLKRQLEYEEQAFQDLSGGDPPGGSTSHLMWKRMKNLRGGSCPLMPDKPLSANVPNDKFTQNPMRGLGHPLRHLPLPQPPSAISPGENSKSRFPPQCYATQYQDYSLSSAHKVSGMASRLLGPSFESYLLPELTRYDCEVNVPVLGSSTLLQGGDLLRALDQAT
Briefly: HIF-2α luciferase reporter assay in HIF-Luc-786-O cells. It is filed as cell-based. The note with it: Table 1, 20 hours incubation. The procedure:
Generation of HIF-2α Luciferase 786-O Cell Line:
Stable cell lines were generated by transducing 786-O cells (ATCC, CRL-1932) with Cignal Lenti HIF Luc Reporter lentivirus (CLS-007 L, Qiagen) according to the manufacturer's guidelines. In brief, 0.3×10^6 786-0 cells were transduced with lentivirus at a Multiplicity of Infection (MOI) of 25 for 24 hours. After transduction, cells were replenished with fresh RPMI 1640 Medium (Cat. No. 11875085, Thermo Fisher,) supplemented with 10% FBS (Cat. No. A3160502, Gibco), 2 mM GlutaMax (Cat. No. 35050-061, Invitrogen) and 100 units of penicillin and 100 μg of streptomycin/mL (Cat. No 15070063, Thermo Fisher) for another 24 hours. Antibiotic selection was performed in cell media containing 4 μg/mL of Puromycin. After 7 days of antibiotic selection, stable pools of surviving cells were expanded and used in a luciferase reporter assay.
HIF-2α Luciferase Reporter Assay:
On day one, 20 uL of HIF-Luc-786-0 cells in OptiMem (Cat. No. 31985088, Thermo Fisher) were seeded into each well of a 384 well white opaque plate (Corning 3570) and incubated at 37° C. and 5% CO2. Twenty microliters of 2× test compounds in OptiMem were added to cells after 4 hours of incubation. Final assay conditions comprised 20,000 cells per well in 1% DMSO with test compound concentrations ranging from 50 uM to 0 uM. After 20 hours incubation at 37° C. and 5% CO2, luciferase activity was determined using ONE-Glo Luciferase Assay Reagent (E6110, Promega) following the manufacture's recommended procedure. Briefly, 40 uL of ONE-Glo luciferase reagents were added to each well and luciferase signals were measured using an Envision 2102 Multilabel Reader. Percentage maximum activity in each test well was calculated based on DMSO (maximum activity) and no cell control wells (baseline activity). The IC50 values of the test compounds were determined from compound dose response curves fitted using a standard four parameter fit equation.
On the technique in general: Reporter assays use an easily measured gene product as a stand-in for the process of interest.
Broadly, the IC50 is the concentration at which inhibition is half-maximal. A high value points to lower potency. As to `O=[N+]([O-])c1cc(S(=O)(=O)C(F)(F)F)ccc1N1CCCc2ccc(C(F)F)cc21` [Example 67], the IC50 is above 1000 nM.
The same measure, in the same setting: the figure for `O=[N+]([O-])c1cc(S(=O)(=O)C(F)(F)F)ccc1N1CCOc2ccc(Cl)cc21` [Example 82] is above 1000 nM.

Staying with this assay, now noted: Table 3, 20 hours incubation.
The molecule `Cc1ccccc1-c1ccc([C@H]2CC[C@H](F)c3cc(F)cc(C#N)c32)c2c1[C@H](O)C(F)(F)C2` [Example 144, (5S,8R)-8-[(1S)-2,2-difluoro-1-hydroxy-7-(2-methylphenyl)-2,3-dihydro-1H-inden-4-yl]-3,5-difluoro-5,6,7,8-tetrahydronaphthalene-1-carbonitrile] registered an IC50 below 100 nM.
Still for that read-out and setting: the figure for `Cn1cc(-c2ccc([C@H]3CC[C@H](F)c4cc(F)cc(C#N)c43)c3c2[C@H](O)C(F)(F)C3)nn1` [Example 146, (5S,8R)-8-[(1S)-2,2-difluoro-1-hydroxy-7-(1-methyl-1H-1,2,3-triazol-4-yl)-2,3-dihydro-1H-inden-4-yl]-3,5-difluoro-5,6,7,8-tetrahydronaphthalene-1-carbonitrile] is below 100 nM; for `Cc1ncc(-c2ccc([C@H]3CC[C@H](F)c4cc(F)cc(C#N)c43)c3c2[C@H](O)C(F)(F)C3)o1` [Example 148, (5S,8R)-8-[(1S)-2,2-difluoro-1-hydroxy-7-(2-methyl-1,3-oxazol-5-yl)-1,3-dihydroinden-4-yl]-3,5-difluoro-5,6,7,8-tetrahydronaphthalene-1-carbonitrile] it is 100 to 1000 nM.
The molecule `N#Cc1cc(N)ncc1-c1ccc([C@H]2CC[C@H](F)c3cc(F)cc(C#N)c32)c2c1[C@H](O)C(F)(F)C2` [Example 149, 2-amino-5-[(3S)-7-[(1R,4S)-8-cyano-4,6-difluoro-1,2,3,4-tetrahydronaphthalen-1-yl]-2,2-difluoro-3-hydroxy-1,3-dihydroinden-4-yl] pyridine-4-carbonitrile] gave a concentration for half-maximal inhibition (IC50) below 100 nM.
Same read-out and setting: to `Cn1cc(-c2ccc([C@H]3CC[C@H](F)c4cc(F)cc(C#N)c43)c3c2[C@H](O)C(F)(F)C3)cn1` [Example 150, (5S,8R)-8-[(1S)-2,2-difluoro-1-hydroxy-7-(1-methylpyrazol-4-yl)-1,3-dihydroinden-4-yl]-3,5-difluoro-5,6,7,8-tetrahydronaphthalene-1-carbonitrile] belongs 100 to 1000 nM; to `Cc1ncoc1-c1ccc([C@H]2CC[C@H](F)c3cc(F)cc(C#N)c32)c2c1[C@H](O)C(F)(F)C2` [Example 151, (5S,8R)-8-[(1S)-2,2-difluoro-1-hydroxy-7-(4-methyl-1,3-oxazol-5-yl)-1,3-dihydroinden-4-yl]-3,5-difluoro-5,6,7,8-tetrahydronaphthalene-1-carbonitrile], below 100 nM; to `Cc1c(C#N)cccc1-c1ccc([C@H]2CC[C@H](F)c3cc(F)cc(C#N)c32)c2c1[C@H](O)C(F)(F)C2` [Example 155, (5S,8R)-8-[(1S)-7-(3-cyano-2-methylphenyl)-2,2-difluoro-1-hydroxy-1,3-dihydroinden-4-yl]-3,5-difluoro-5,6,7,8-tetrahydronaphthalene-1-carbonitrile], below 100 nM.
As to `N#Cc1cc(F)cc2c1[C@@H](c1ccc(-c3ccncc3)c3c1CC(F)(F)[C@H]3O)CC[C@@H]2F` [Example 156, (5S,8R)-8-[(1S)-2,2-difluoro-1-hydroxy-7-pyridin-4-yl-1,3-dihydroinden-4-yl]-3,5-difluoro-5,6,7,8-tetrahydronaphthalene-1-carbonitrile], the IC50 was 100 to 1000 nM.
The same measure, in the same setting: the figure for `N#Cc1cc(F)cc2c1[C@@H](c1ccc(-c3cncs3)c3c1CC(F)(F)[C@H]3O)CC[C@@H]2F` [Example 158, (5S,8R)-8-[(1S)-2,2-difluoro-1-hydroxy-7-(1,3-thiazol-5-yl)-1,3-dihydroinden-4-yl]-3,5-difluoro-5,6,7,8-tetrahydronaphthalene-1-carbonitrile] is below 100 nM; for `N#Cc1cc(F)cc2c1[C@@H](c1ccc(-c3cccnc3)c3c1CC(F)(F)[C@H]3O)CC[C@@H]2F` [Example 160, (5S,8R)-8-[(1S)-2,2-difluoro-1-hydroxy-7-pyridin-3-yl-1,3-dihydroinden-4-yl]-3,5-difluoro-5,6,7,8-tetrahydronaphthalene-1-carbonitrile] it is below 100 nM; for `Cc1[nH]c(=O)ccc1-c1ccc([C@H]2CC[C@H](F)c3cc(F)cc(C#N)c32)c2c1[C@H](O)C(F)(F)C2` [Example 161, (5S,8R)-8-[(1S)-2,2-difluoro-1-hydroxy-7-(2-methyl-6-oxo-1H-pyridin-3-yl)-1,3-dihydroinden-4-yl]-3,5-difluoro-5,6,7,8-tetrahydronaphthalene-1-carbonitrile] it is 100 to 1000 nM.
Same read-out and setting: to `N#Cc1cc(F)cc2c1[C@@H](c1ccc(-c3cnccc3F)c3c1CC(F)(F)[C@H]3O)CC[C@@H]2F` [Example 163, (5S,8R)-8-[(1S)-2,2-difluoro-7-(4-fluoropyridin-3-yl)-1-hydroxy-2,3-dihydro-1H-inden-4-yl]-3,5-difluoro-5,6,7,8-tetrahydronaphthalene-1-carbonitrile] belongs below 100 nM.
Still for that read-out and setting: to `N#Cc1cc(F)cc2c1[C@@H](c1ccc(-c3cccc4c3CC(=O)N4)c3c1CC(F)(F)[C@H]3O)CC[C@@H]2F` [Example 164, (5S,8R)-8-[(1S)-2,2-difluoro-1-hydroxy-7-(2-oxo-2,3-dihydro-1H-indol-4-yl)-2,3-dihydro-1H-inden-4-yl]-3,5-difluoro-5,6,7,8-tetrahydronaphthalene-1-carbonitrile] belongs 100 to 1000 nM; to `N#Cc1cc(F)cc2c1[C@@H](c1ccc(-c3ccccc3CN)c3c1CC(F)(F)[C@H]3O)CC[C@@H]2F` [Example 165, (5S,8R)-8-[(1S)-7-[2-(aminomethyl)phenyl]-2,2-difluoro-1-hydroxy-2,3-dihydro-1H-inden-4-yl]-3,5-difluoro-5,6,7,8-tetrahydronaphthalene-1-carbonitrile], 100 to 1000 nM; to `Cc1nc(N)ncc1-c1ccc([C@H]2CC[C@H](F)c3cc(F)cc(C#N)c32)c2c1[C@H](O)C(F)(F)C2` [Example 168, (5S,8R)-8-[(1S)-7-(2-amino-4-methylpyrimidin-5-yl)-2,2-difluoro-1-hydroxy-1,3-dihydroinden-4-yl]-3,5-difluoro-5,6,7,8-tetrahydronaphthalene-1-carbonitrile], below 100 nM.
For `Cn1c(-c2ccc([C@H]3CC[C@H](F)c4cc(F)cc(C#N)c43)c3c2[C@H](O)C(F)(F)C3)cccc1=O` [Example 171, (5S,8R)-8-[(1S)-2,2-difluoro-1-hydroxy-7-(1-methyl-6-oxopyridin-2-yl)-1,3-dihydroinden-4-yl]-3,5-difluoro-5,6,7,8-tetrahydronaphthalene-1-carbonitrile], the 50% inhibitory concentration (IC50) is below 100 nM.
The same measure, in the same setting: the figure for `N#Cc1cc(F)cc2c1[C@@H](c1ccc(-c3ccn[nH]3)c3c1C[C@@H](F)[C@H]3O)CC[C@@H]2F` [Example 172, (5S,8R)-3,5-difluoro-8-[(1S,2R)-2-fluoro-1-hydroxy-7-(1H-pyrazol-5-yl)-2,3-dihydro-1H-inden-4-yl]-5,6,7,8-tetrahydronaphthalene-1-carbonitrile] is above 1000 nM; for `Cn1nncc1-c1ccc([C@H]2CC[C@H](F)c3cc(F)cc(C#N)c32)c2c1[C@H](O)[C@H](F)C2` [Example 175, (5S,8R)-3,5-difluoro-8-[(1S,2R)-2-fluoro-1-hydroxy-7-(3-methyltriazol-4-yl)-2,3-dihydro-1H-inden-4-yl]-5,6,7,8-tetrahydronaphthalene-1-carbonitrile] it is below 100 nM; for `Cc1nccnc1-c1ccc([C@H]2CC[C@H](F)c3cc(F)cc(C#N)c32)c2c1[C@H](O)C(F)(F)C2` [Example 176, (5S,8R)-8-[(1S)-2,2-difluoro-1-hydroxy-7-(3-methylpyrazin-2-yl)-1,3-dihydroinden-4-yl]-3,5-difluoro-5,6,7,8-tetrahydronaphthalene-1-carbonitrile] it is below 100 nM.
Same read-out and setting: the figure for `N#Cc1cc(F)cc2c1[C@@H](c1ccc(-c3cncnc3N)c3c1CC(F)(F)[C@H]3O)CC[C@@H]2F` [Example 177, (5S,8R)-8-[(1S)-7-(4-aminopyrimidin-5-yl)-2,2-difluoro-1-hydroxy-1,3-dihydroinden-4-yl]-3,5-difluoro-5,6,7,8-tetrahydronaphthalene-1-carbonitrile] is below 100 nM; for `N#Cc1cc(F)cc2c1[C@@H](c1ccc(-c3cnncc3N)c3c1CC(F)(F)[C@H]3O)CC[C@@H]2F` [Example 178, (5S,8R)-8-[(1S)-7-(5-aminopyridazin-4-yl)-2,2-difluoro-1-hydroxy-1,3-dihydroinden-4-yl]-3,5-difluoro-5,6,7,8-tetrahydronaphthalene-1-carbonitrile] it is 100 to 1000 nM.
